Where two headings read alike, the source gives them in different places.
Legend:
HIV-1MDR/C = type: cell-based; settings: for EC50 (μM), HIV-1MDR/C (SI): PHA-PBMCs, p24 Gag; for n-fold change of EC50, HIV-1MDR/C: compared to wild-type HIV-1ERS104pre
Experimental: (§1) The susceptibility of HIV-1LAI and primary HIV-1 isolates to various drugs were determined as described previously (Koh et al. 2003 Antimicrob Agents Chemother 47:3123-9). Briefly, MT-2 cells (2×10^4/ml) were exposed to 100 50% tissue culture infectious doses (TCID50S) of HIV-1LAI, in the presence or absence of various concentrations of drugs in 96-well microculture plates and were incubated at 37° C. for 7 days. After 100 μl of the medium was removed from each well, 3-(4,5-dimetylthiazol-2-yl)-2,5-diphenyltetrazolium bromide (MTT) solution (10 μl, 7.5 mg/ml in phosphate-buffered saline) was added to each well in the plate, followed by incubation at 37° C. for 3 h. […] All assays were performed in duplicate or triplicate. To determine the susceptibility of primary HIV-1 isolates to drugs, phytohemagglutinin-activated peripheral blood mononuclear cells (PHA-PBMCs; 106/ml) were exposed to 50 TCID50S of each. The target cells were exposed to HIV-1104pre or drug-resistant HIV-1 in the presence or absence of various concentrations of drugs and were incubated for 7 days. Upon the conclusion of the culture, the amounts of p24 Gag protein in the supernatants were determined using a fully automated chemiluminescent enzyme immunoassay system (Lumipulse F; Fujirebio Inc., Tokyo, Japan) (Maeda et al. 2001 J Biol Chem 276:35194-200). To determine the drug susceptibility of certain laboratory HIV-1 strains, MT-4 cells were used as target cells. In brief, MT-4 cells (10^5/ml) were exposed to 100 TCID50S of drug-resistant HIV-1 strains in the presence or absence of various concentrations of drugs and on day 7 of culture, the supernatant was harvested and the amounts of p24 Gag protein were determined. […] All assays were performed in duplicate or triplicate.
(§2) These clinical strains contained 9 to 14 amino acid substitutions in the protease-encoding region, which have reportedly been associated with HIV-1 resistance to various PIs.
(§3) Amino acid substitutions identified in the protease-encoding region compared to the consensus type B sequence cited from the Los Alamos database include L63P in HIV-1ERS104pre; L10I, K14R, L33I, M36I, M46I, F53I, K55R, I62V, L63P, A71V, G73S, V82A, L90M, and I93L in HIV-1MDR/B; L10I, I15V, K20R, L24I, M36I, M46L, I54V, I62V, L63P, K70Q, V82A, and L89M in HIV-1MDR/C; L10I, V11I, T12E, I15V, L19I, R41K, M46L, L63P, A71T, V82A, and L90M in HIV-1MDR/G; L10I, K14R, R41K, M46L, I54V, L63P, A71V, V82A, L90M, I93L in HIV-1MDR/TM; L10I, K43T, M46L, I54V, L63P, A71V, V82A, L90M, and Q92K in HIV-1MDR/MM; L10I, L24I, I33F, E35D, M36I, N37S, M46L, I54V, R57K, I62V, L63P, A71V, G73S, and V82A in HIV-1MDR/JSL. HIV-1ERS104pre served as a source of wild-type HIV-1. EC50s were determined by using PHA-PBMs as target cells, and inhibition of p24 Gag protein production by each drug was used as an end point. Numbers in parentheses represent n-fold changes of EC50s for each isolate compared to EC50s for wild-type HIV-1ERS104pre.

HIV-1MDR/G = type: cell-based; settings: for EC50 (μM), HIV-1MDR/G (SI): PHA-PBMCs, p24 Gag; for n-fold change of EC50, HIV-1MDR/G: compared to wild-type HIV-1ERS104pre
Experimental: as §1, §2, §3

HIV-1MDR/TM = type: cell-based; settings: for EC50 (μM), HIV-1MDR/TM (SI): PHA-PBMCs, p24 Gag; for n-fold change of EC50, HIV-1MDR/TM: compared to wild-type HIV-1ERS104pre
Experimental: as §1, §2, §3

HIV-1MDR/B = type: cell-based; settings: for EC50 (μM), HIV-1MDR/B (SI): PHA-PBMCs, p24 Gag; for n-fold change of EC50, HIV-1MDR/B: compared to wild-type HIV-1ERS104pre
Experimental: as §1, §2, §3

[1] = tested on: HIV-1ERS104pre (wild-type); assay: p24 Gag inhibition in PHA-PBMCs, HIV-1ERS104pre; type: cell-based; settings: mean ± 1 SD
Experimental: as §1, §2, §3

[2] = tested on: multidrug-resistant clinical HIV-1 isolates (HIV-1MDR); assay: microbe, parasite or virus in culture; type: cell-based; settings: Human immunodeficiency virus 1, read-out: EC50 with multidrug-resistant clinical HIV-1 isolates (mostly)
Experimental: as §1, §2, §3

HIV-1MDR/MM = assay: microbe, parasite or virus in culture; type: cell-based; settings: for EC50: Human immunodeficiency virus 1, read-out: EC50 (μM), HIV-1MDR/MM (NSI); for n-fold change of EC50, HIV-1MDR/MM: compared to wild-type HIV-1ERS104pre
Experimental: as §1, §2, §3

HIV-1MDR/JSL = assay: microbe, parasite or virus in culture; type: cell-based; settings: for EC50: Human immunodeficiency virus 1, read-out: EC50 (μM), HIV-1MDR/JSL (NSI); for n-fold change of EC50, HIV-1MDR/JSL: compared to wild-type HIV-1ERS104pre
Experimental: as §1, §2, §3

HIV-1APV5μM = assay: microbe, parasite or virus in culture; type: cell-based
Experimental: as §1
(§4) Numbers in parentheses represent n-fold changes in EC50s for each isolate compared to the EC50s for wild-type HIV-1NL4-3.

HIV-1SQV5μM = assay: microbe, parasite or virus in culture; type: cell-based
Experimental: as §1, §4

HIV-1LPV5μM = assay: microbe, parasite or virus in culture; type: cell-based
Experimental: as §1, §4

HIV-1AZV5μM = assay: microbe, parasite or virus in culture; type: cell-based
Experimental: as §1, §4

HIV-1NFV5μM = assay: microbe, parasite or virus in culture; type: cell-based
Experimental: as §1, §4

HIV-1NL4-3 = assay: p24 Gag inhibition in MT-4 cells, HIV-1NL4-3; type: cell-based; settings: Human immunodeficiency virus 1, MT4, read-out: EC50 (μM), HIV-1NL4-3, Table 7, mean ± 1 SD
Experimental: All assays were performed in duplicate or triplicate. […] All assays were performed in duplicate or triplicate.

HIV-1 = assay: antiviral assay (IC50); type: cell-based; settings: read-out: IC50
Experimental: (§5) The inhibitory potencies of acyclic and cyclic inhibitors were measured by the assay protocol of Toth and Marshall (Toth, M. V.; Marshall, G. R. A simple, continuous fluorometric assay for HIV protease. Int. J. Pep. Protien Res. 1990, 36, 544-55).

HIV-1 protease = biological target: T1, HIV-1 protease (Human immunodeficiency virus type 1 group M subtype B, UniProt P04585); assay: HIV protease enzyme inhibition, fluorometric assay of Toth and Marshall; type: biochemical; settings: read-out: Ki
T1 construct: A simple, continuous fluorometric assay for HIV protease
Experimental: as §5

[3] = compared to wild-type HIV-1NL4-3

CC(C)(C)NC(=O)[C@@H]1CN(Cc2cccnc2)CCN1C[C@@H](O)C[C@@H](Cc1ccccc1)C(=O)N[C@H]1c2ccccc2C[C@H]1O [IDV, Indinavir]
EC50 (μM), HIV-1MDR/C (SI) (HIV-1MDR/C): > 1 µM | n-fold change of EC50, HIV-1MDR/C (HIV-1MDR/C): > 23 | EC50 (μM), HIV-1MDR/G (SI) (HIV-1MDR/G): 0.34 ± 0.14 µM | n-fold change of EC50, HIV-1MDR/G (HIV-1MDR/G): (5) | EC50 (μM), HIV-1MDR/TM (SI) (HIV-1MDR/TM): > 1 µM | n-fold change of EC50, HIV-1MDR/TM (HIV-1MDR/TM): > 23 | EC50 (μM), HIV-1MDR/B (SI) (HIV-1MDR/B): > 1 µM | n-fold change of EC50, HIV-1MDR/B (HIV-1MDR/B): > 23 | EC50 (μM), HIV-1ERS104pre (wild-type SI) [1]: 0.043 ± 0.004 µM | EC50 [2]: > 1 µM | EC50 (HIV-1MDR/MM): > 1 µM | n-fold change of EC50, HIV-1MDR/MM (HIV-1MDR/MM): > 23 | EC50 (HIV-1MDR/JSL): > 1 µM | n-fold change of EC50, HIV-1MDR/JSL (HIV-1MDR/JSL): > 23

CC(C)(C)NC(=O)[C@@H]1C[C@@H]2CCCC[C@@H]2CN1C[C@@H](O)[C@H](Cc1ccccc1)NC(=O)[C@H](CC(N)=O)NC(=O)c1ccc2ccccc2n1 [SQV, Saquinavir]
EC50 (μM), HIV-1MDR/C (SI) (HIV-1MDR/C): 0.032 ± 0.002 µM | n-fold change of EC50, HIV-1MDR/C (HIV-1MDR/C): (11) | EC50 (μM), HIV-1MDR/G (SI) (HIV-1MDR/G): 0.030 ± 0.002 µM | n-fold change of EC50, HIV-1MDR/G (HIV-1MDR/G): (4) | EC50 (μM), HIV-1MDR/TM (SI) (HIV-1MDR/TM): 0.26 ± 0.04 µM | n-fold change of EC50, HIV-1MDR/TM (HIV-1MDR/TM): (33) | EC50 (μM), HIV-1MDR/B (SI) (HIV-1MDR/B): 0.27 ± 0.073 µM | n-fold change of EC50, HIV-1MDR/B (HIV-1MDR/B): (34) | EC50 (μM), HIV-1ERS104pre (wild-type SI) [1]: 0.008 ± 0.005 µM | EC50 (HIV-1APV5μM; Human immunodeficiency virus 1, MT4, read-out: EC50 (μM), HIV-1APV5 μM): 0.026 ± 0.01 µM | n-fold change in EC50, HIV-1APV5 μM (HIV-1APV5μM; [3]): (5) | EC50 (HIV-1SQV5μM; Human immunodeficiency virus 1, MT4, read-out: EC50 (μM), HIV-1SQV5 μM): > 1 µM | n-fold change in EC50, HIV-1SQV5 μM (HIV-1SQV5μM; [3]): > 200 | EC50 (HIV-1LPV5μM; Human immunodeficiency virus 1, MT4, read-out: EC50 (μM), HIV-1LPV5 μM): 0.028 ± 0.007 µM | n-fold change in EC50, HIV-1LPV5 μM (HIV-1LPV5μM; [3]): (6) | EC50 (HIV-1AZV5μM; Human immunodeficiency virus 1, MT4, read-out: EC50 (μM), HIV-1AZV5 μM): 0.031 ± 0.005 µM | n-fold change in EC50, HIV-1AZV5 μM (HIV-1AZV5μM; [3]): (6) | EC50 (HIV-1NFV5μM; Human immunodeficiency virus 1, MT4, read-out: EC50 (μM), HIV-1NPV5 μM): 0.003 ± 0.002 µM | n-fold change in EC50, HIV-1NPV5 μM (HIV-1NFV5μM; [3]): (1) | EC50 (HIV-1NL4-3): 0.005 ± 0.002 µM | EC50 (HIV-1MDR/MM): 0.19 ± 0.05 µM | n-fold change of EC50, HIV-1MDR/MM (HIV-1MDR/MM): (24) | EC50 (HIV-1MDR/JSL): 0.3 ± 0.02 µM | n-fold change of EC50, HIV-1MDR/JSL (HIV-1MDR/JSL): (37)

C=CCCCCOc1cc(OC)ccc1S(=O)(=O)N(C[C@@H](O)[C@H](Cc1ccccc1)NC(=O)O[C@H]1CO[C@H]2OCC[C@H]21)CC(C)(C)CC=C [Compound 19a, (3R,3aS,6aR)-Hexahydrofuro[2,3-b]furan-3-yl (2S,3R)-4-(N-(2,2-dimethylpent-4-enyl)-2-(hex-5-enyloxy)-4-methoxyphenylsulfonamido)-3-hydroxy-1-phenylbutan-2-ylcarbamate]
IC50 (HIV-1; Human immunodeficiency virus 1, Table 4): > 1 µM | Ki (HIV-1 protease; Table 4): < 0.1 µM

COc1ccc2c(c1)OCCCCC=CCCCCN(CC(O)C(Cc1ccccc1)NC(=O)OC1COC3OCCC13)S2(=O)=O (stereo not drawn) [Compound 14a]
IC50 (HIV-1; Human immunodeficiency virus 1, Table 2): < 0.1 µM | Ki (HIV-1 protease; Table 2): < 0.001 µM

Source: US9617276B2, “Compounds and methods for treating AIDS and HIV infections” (priority 2009, dated 2017)
